Measured values: ChEMBL document CHEMBL1201862, “PubChem BioAssay data set” (2004)
Calls of active or inactive are those of the source.

What was measured:
[1] = Luminescence Cell-Based Dose Response HTS to Identify Activators of Luciferase Translation or Activity in H4 […] Cells. [Related pubchem assays: 1829 (Project Summary), 1814 (Primary HTS)]; assay type: functional
H4 = test: Luminescence Cell-Based Dose Response HTS to Identify Activators of 5'UTR Stem-Loop Driven Prion Protein mRNA Translation in H4 Neuroglioblastoma Cells. [Related pubchem assays: 1829 (Project Summary), 1814 (Primary HTS)]; assay type: functional; conditions: Homo sapiens
[2] = Luminescence Cell-Based Dose Confirmation HTS to Identify Activators of 5'UTR Stem-Loop Driven Alpha-Synuclein mRNA Translation in H4 Neuroglioblastoma Cells. [Related pubchem assays: 1829 (Project Summary), 1814 (Primary HTS)]; assay type: functional
cells = assay type: functional
[3] = biological target: T1, Replicative DNA helicase DnaB (Mycobacterium tuberculosis, UniProt P9WMR3); test: DnaB intein splicing inhibitors, dose response, biochemical, cell-free fluorescence (AID 449749); assay type: functional
T1 sequence (P9WMR3 whole entry): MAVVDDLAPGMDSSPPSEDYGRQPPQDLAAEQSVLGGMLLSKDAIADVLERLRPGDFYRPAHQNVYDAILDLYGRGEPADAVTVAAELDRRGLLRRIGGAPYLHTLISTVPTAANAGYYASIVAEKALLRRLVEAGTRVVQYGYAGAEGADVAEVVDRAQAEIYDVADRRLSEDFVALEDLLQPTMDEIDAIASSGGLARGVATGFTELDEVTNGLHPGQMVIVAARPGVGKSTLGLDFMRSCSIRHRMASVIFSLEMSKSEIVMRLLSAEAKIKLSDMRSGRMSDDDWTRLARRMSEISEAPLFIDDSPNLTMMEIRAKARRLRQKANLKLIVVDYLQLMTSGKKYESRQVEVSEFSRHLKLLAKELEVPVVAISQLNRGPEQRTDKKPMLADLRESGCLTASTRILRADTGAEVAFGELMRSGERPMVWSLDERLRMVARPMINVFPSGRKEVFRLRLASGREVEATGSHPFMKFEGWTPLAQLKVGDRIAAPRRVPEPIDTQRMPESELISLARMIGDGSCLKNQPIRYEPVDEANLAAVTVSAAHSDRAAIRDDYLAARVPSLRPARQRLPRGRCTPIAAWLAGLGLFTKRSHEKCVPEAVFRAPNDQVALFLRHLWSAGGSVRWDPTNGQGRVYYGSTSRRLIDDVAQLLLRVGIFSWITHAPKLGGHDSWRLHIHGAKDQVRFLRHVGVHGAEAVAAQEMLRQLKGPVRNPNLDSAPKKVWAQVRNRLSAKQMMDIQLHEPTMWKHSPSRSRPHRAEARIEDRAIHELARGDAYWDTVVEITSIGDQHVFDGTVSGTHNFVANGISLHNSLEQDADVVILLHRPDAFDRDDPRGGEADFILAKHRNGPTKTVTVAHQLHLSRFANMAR

[4] = biological target: Glyceraldehyde-3-phosphate dehydrogenase (Homo sapiens, UniProt P04406)
Protein RecA = biological target: T2, Protein RecA (Mycobacterium tuberculosis, UniProt P9WHJ3); test: Fluorescence Cell-Free Homogeneous Dose Retest to Identify Inhibitors of RecA-Intein Splicing Activity. [Related pubchem assays (depositor defined):AID2097, AID2223, AID489010, AID492950]; assay type: functional
T2 sequence (P9WHJ3 whole entry): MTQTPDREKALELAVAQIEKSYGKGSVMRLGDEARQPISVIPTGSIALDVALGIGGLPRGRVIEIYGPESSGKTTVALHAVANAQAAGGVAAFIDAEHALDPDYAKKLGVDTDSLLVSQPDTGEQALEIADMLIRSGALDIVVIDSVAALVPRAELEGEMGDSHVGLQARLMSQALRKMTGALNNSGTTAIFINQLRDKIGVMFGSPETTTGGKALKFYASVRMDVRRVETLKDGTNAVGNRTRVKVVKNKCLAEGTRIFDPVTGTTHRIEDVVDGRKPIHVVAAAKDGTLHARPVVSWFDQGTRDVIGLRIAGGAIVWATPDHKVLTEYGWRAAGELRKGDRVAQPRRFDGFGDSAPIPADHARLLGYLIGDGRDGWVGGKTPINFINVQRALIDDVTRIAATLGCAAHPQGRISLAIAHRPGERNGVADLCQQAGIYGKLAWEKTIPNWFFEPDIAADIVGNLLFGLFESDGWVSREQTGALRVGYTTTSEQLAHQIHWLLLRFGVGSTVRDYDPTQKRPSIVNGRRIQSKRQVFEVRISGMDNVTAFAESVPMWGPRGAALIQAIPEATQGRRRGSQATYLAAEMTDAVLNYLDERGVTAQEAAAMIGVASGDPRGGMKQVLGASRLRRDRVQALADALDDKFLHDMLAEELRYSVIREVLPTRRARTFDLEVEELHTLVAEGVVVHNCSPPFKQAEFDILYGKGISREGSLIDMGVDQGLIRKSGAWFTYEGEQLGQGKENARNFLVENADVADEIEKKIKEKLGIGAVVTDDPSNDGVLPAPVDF

[5] = microbe, parasite or virus in culture; assay type: functional; conditions: Mycobacterium tuberculosis
[6] = biological target: FAD-linked sulfhydryl oxidase ALR (Homo sapiens, UniProt P55789); test: inhibitors of human ALR sulfhydryl oxidase, dose response, biochemical, H2O2 detection, luminescence, cherry-pick (AID 493248)
[7] = biological target: T3, Carboxy-terminal domain RNA polymerase II polypeptide A small phosphatase 1 (Homo sapiens, UniProt Q9GZU7); test: inhibitors of CTDSP1, concentration-response testing, biochemical assay, absorbance-based, actives from ultra-high-throughput screening (AID 540297); assay type: functional
T3 sequence (Q9GZU7 whole entry): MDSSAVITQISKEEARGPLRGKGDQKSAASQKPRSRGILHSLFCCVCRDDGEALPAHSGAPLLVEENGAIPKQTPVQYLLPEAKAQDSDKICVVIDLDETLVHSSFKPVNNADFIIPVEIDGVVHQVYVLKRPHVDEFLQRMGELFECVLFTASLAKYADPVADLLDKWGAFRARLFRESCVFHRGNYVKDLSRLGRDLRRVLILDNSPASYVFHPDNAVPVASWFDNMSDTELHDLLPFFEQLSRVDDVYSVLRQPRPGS

[8] = biological target: T4, Heat shock factor protein 1 (Mus musculus, UniProt P38532); test: HSF1 potentiators in luciferase reporter cells, confirmation, cell-based, NIH3T3, luminescence, dose retest (AID 435004); assay type: functional;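 note: stress induced by proteasome inhibitor MG132 added 30 min after compound; luciferase reporter driven by HSF1 response element in NIH3T3 cells; actives raise luminescence as potentiators of the MG132 stress response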
T4 sequence (P38532 whole entry): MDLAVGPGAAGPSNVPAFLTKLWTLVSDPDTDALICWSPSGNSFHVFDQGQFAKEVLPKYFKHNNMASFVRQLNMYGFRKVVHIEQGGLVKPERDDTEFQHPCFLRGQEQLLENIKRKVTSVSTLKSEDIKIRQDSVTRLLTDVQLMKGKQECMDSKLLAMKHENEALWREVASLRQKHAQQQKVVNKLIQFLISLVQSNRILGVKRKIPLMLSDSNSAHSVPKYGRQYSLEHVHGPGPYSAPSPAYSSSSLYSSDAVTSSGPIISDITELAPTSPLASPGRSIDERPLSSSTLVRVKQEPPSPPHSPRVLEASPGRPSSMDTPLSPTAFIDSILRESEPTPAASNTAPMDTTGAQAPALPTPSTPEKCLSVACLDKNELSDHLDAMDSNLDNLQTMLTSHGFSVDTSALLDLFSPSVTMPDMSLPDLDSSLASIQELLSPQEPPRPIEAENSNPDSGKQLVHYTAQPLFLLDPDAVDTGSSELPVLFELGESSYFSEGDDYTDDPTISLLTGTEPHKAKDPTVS

[9] = Shn3 3'UTR reporter inhibitors, dose response, cell-based, Clone20 osteoblasts, firefly luciferase, cherry-picked (AID 624132); assay type: functional;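 note: firefly luciferase luminescence from reporter carrying the Shn3 3'UTR in osteoblasts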
Cytochrome P450 1A2 = biological target: T5, Cytochrome P450 1A2 (Homo sapiens, UniProt P05177);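 note: PubChem cytochrome P450 panel assay, CYP1A2 panel member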
T5 sequence (P05177 whole entry): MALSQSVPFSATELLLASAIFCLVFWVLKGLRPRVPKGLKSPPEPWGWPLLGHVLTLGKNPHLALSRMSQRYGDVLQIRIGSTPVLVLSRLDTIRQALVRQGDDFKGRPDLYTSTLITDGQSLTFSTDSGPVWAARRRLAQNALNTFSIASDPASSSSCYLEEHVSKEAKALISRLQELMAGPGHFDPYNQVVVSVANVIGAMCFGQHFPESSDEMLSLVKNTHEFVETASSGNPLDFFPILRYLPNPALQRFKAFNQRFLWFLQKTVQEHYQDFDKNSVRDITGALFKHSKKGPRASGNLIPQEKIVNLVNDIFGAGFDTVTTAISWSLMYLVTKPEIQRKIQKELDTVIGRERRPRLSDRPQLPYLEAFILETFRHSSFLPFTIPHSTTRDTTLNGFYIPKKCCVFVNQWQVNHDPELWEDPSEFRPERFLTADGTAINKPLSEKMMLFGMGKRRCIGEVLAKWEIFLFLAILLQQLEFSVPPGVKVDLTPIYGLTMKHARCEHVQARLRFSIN

[10] = growth suppression of PTEN-null colon cells, dose response, cell-based, HCT116 PTEN knockout (AID 1047); assay type: functional;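 note: HCT116 colon tumor cells with PTEN knocked out; cells exposed to compound for 60 hours before readout; potency for loss of cell viability measured by luminescence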
[11] = growth suppression of beta-catenin-knockout colon cells, dose response, cell-based, HCT116, human colon tumor (AID 1045); assay type: functional;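 note: HCT116 colon tumor cells with beta catenin knocked out; cells exposed to compound for 60 hours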

Sequence of Glyceraldehyde-3-phosphate dehydrogenase (P04406 whole entry): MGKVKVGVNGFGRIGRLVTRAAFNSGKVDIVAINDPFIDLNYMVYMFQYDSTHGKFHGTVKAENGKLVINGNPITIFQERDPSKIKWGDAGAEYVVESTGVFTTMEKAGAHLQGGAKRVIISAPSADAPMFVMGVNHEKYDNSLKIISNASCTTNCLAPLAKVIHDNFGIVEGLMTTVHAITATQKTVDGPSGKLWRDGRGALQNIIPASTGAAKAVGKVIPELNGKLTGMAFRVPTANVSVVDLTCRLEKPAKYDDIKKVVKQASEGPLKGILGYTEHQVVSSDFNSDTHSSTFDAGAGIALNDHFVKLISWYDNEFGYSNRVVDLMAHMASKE
Sequence of FAD-linked sulfhydryl oxidase ALR (P55789 whole entry, the tested form may be a part): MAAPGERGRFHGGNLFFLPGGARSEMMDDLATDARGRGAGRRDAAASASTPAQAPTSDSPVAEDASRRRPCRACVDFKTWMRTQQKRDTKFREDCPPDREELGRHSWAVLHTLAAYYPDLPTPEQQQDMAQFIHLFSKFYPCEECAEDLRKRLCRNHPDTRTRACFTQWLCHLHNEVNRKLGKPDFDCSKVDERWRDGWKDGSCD

## COc1ccc(-c2nc3c(n2O)CCc2c-3no[n+]2[O-])cc1
[1]
  EC50: 22.2 µM (active)
H4
  EC50: 15 µM (active)
[2]
  EC50: > 120 µM (not active)

## CCOC(=O)C1CCCc2c1[nH]c1c(C(N)=O)cccc21 (stereo unspecified)
cells
  IC50: 5.22 µM (active)

## O=C1C(Cl)=C(N2CCOCC2)C(=O)N1c1cccc(C(F)(F)F)c1
[3]
  AC50: 1.16 µM (inconclusive)
[4]
  IC50: > 50 µM (inconclusive)
Protein RecA
  EC50: 1.64 µM (active)

## CC1(C)c2[nH]c3ccccc3c2C[C@@H]2C(=O)N(Cc3ccccc3F)C(=O)N21
[5]
  CC50: > 40 µM (active)

## Cc1cc(O)n2cc(-c3ccccc3)nc2n1
[6]
  AC50: 13.9 µM (active)

## COc1ccc(N2C(=O)C(F)(F)C2c2cccc(F)c2)cc1 (stereo unspecified)
cells
  IC50: 5.74 µM (active)

## CCOc1ccc(C(CC(=O)O)CC(=O)O)cc1
[4]
  IC50: > 100 µM (not active)

## Cc1ncc([N+](=O)[O-])n1CCOC(=O)c1cc(Cl)cc(Cl)c1N
[7]
  IC50: 6.77 µM (active)
[8]
  EC50: > 260 µM (inactive)

## CCCc1cc(C(=O)N2CCCC(Nc3ccc(C)c(C)c3)C2)n(C)n1 (stereo unspecified)
[6]
  AC50: 3.84 µM (active)

## COC(=O)c1ccccc1N=C(S)N(Cc1ccc2c(c1)OCO2)Cc1cc2cc(OC)ccc2nc1O
[9]
  AC50: 10.4 µM (active)

## O=C1C(Cl)=C(N2CCN(CCOCCO)CC2)C(=O)N1c1ccc(C(F)(F)F)cc1
[4]
  IC50: > 50 µM (inconclusive)

## O=C(NNc1nc2ccccc2s1)c1ccccc1F
Cytochrome P450 1A2
  AC50: 14.1 µM (inconclusive)
[6]
  AC50: 14.2 µM (active)
[5]
  CC50: > 40 µM (active)

## CCOc1ccc(CCNc2ccc3nnc(-c4ccccc4)n3n2)cc1OCC
[10]
  EC50: 12.7 µM (active)
[11]
  EC50: 26.3 µM (active)

## Cc1ccc(NC(=O)c2cnn(-c3ccccc3)c2C)c(C)c1
[1]
  EC50: 37.9 µM (active)
H4
  EC50: > 120 µM (not active)
[2]
  EC50: 0.463 µM (active)

## O=C1Nc2ccc(S(=O)(=O)NCc3ccco3)c3cccc1c23
[7]
  IC50: 10.8 µM (active)

## CC(OC(=O)c1ccc2c(=O)n3c(nc2c1)CCCCC3)C(=O)Nc1ccc(Cl)cn1 (stereo unspecified)
cells
  IC50: 20.3 µM (active)
